Assay results as given in patent US12503455B2, “Nucleic acid-binding photoprobes and uses thereof” (Arrakis Therapeutics, Inc., priority 2017, dated 2025).

Experiments:
Assay type in all cases: binding
[1] = test system: Aptamer 21; test: Capture of Aptamer 21 with click-biotinylated probes; conditions: Aptamer 21 or Aptamer 21-E
Method: A 50 μL sample of 1 μM folded Aptamer 21 or Aptamer 21-E solution in folding buffer (20 mM TrisHCl pH 8, 100 mM KCl, 3 mM MgCl2) was added to a 0.5 μL aliquot of 0.5 mM ARK-729, ARK-2058, ARK-816, or ARK-2059 in DMSO or a DMSO-only control. The solution was incubated at 37° C. for 1 h and then irradiated with long wave UV light (˜365 nm) for 30 min in a UV crosslinker (Fisher Scientific). To this solution was added 0.5 μL of 10 mM DBCO-biotin (Click Chemistry Tools, cat. #A105) and 2 μL of 0.5 M EDTA pH 8 and then the solution was incubated at 65° C. for 2 h. The RNA was ethanol precipitated by adding 35 μL of water, 2 uL of 5 mg/mL glycogen, 10 μL 3 M NaOAc pH 5, and 250 μL ethanol, incubating at −80° C. for 1 h, centrifuging at 20000×g for 30 min, washing the pellet twice with 500 μL of 70% ethanol, and then air drying the pellet.
The RNA pellet was redissolved in 50 μL of 1× bind/wash buffer (20 mM TrisHCl pH 7, 100 mM KCl, 0.1% Tween-20). A 50 μL aliquot of MyOne Streptavidin C1 Dynabead slurry (Thermo) was captured on a magnet, washed twice with 50 μL of 1× bind/wash buffer, and then resuspended in 50 μL of the crosslinked RNA sample. The bead suspension was rotated at room temperature for 30 min and then washed twice with 100 μL of 1× bind/wash solution. […]

[2] = test system: Aptamer 21-E; test: Photo-crosslinking of ARK-547 with negative control Aptamer 21-E
Method: A 9.5 μL sample of folded RNA (2.6 μM) in buffer (20 mM TrisHCl pH 8, 100 mM KCl, 3 mM MgCl2) was added to a 0.5 μL aliquot of 1 mM ARK-547 in DMSO. The reaction was incubated for 10 min at 37° C., irradiated with long wave UV light (˜365 nm) for 30 min in a UV crosslinker (Fisher Scientific), and then kept on ice.
The samples of cross-linked RNA were diluted to a final volume of 20 μL and final reaction conditions of 1×T4 RNA ligase buffer (New England Biolabs), 5 U/μL T4 RNA ligase 2, truncated KQ (New England Biolabs), 16.5% PEG-8000, and 0.5 μM universal miRNA cloning linker (New England Biolabs). The reaction was incubated in a thermal cycler for 2.5 h cycling between 5 min at 16° C. and 3 min at 25° C. The RNA was then purified using Agencourt AMPure XP beads (Beckman Coulter) using the standard protocol from the manufacturer. […]
To remove excess primer, the sample was mixed with 4.5 μL of ExoSAP-IT, incubated at 37° C. for 15 min, and then quenched with 1 μL of 0.5 M EDTA pH 8. […] The concentration was determined by absorbance at 260 nm. […]
The concentrations of different PCR products were measured using the Denovix dsDNA fluorescence quantitation kit (Denovix) and multiplexed at equal concentrations with a 20% PhiX spike-in. Sequencing was performed on an Illumina MiSeq with 150 bp paired-end reads using the standard manufacturer protocol.

[3] = test system: Aptamer 21; test: LC-MS analysis of cross-linked RNA
Method: (§1) Folded RNA (1.33 μM) was incubated with or without the photoaffinity probe (20 μM) in total 100 μL of buffer (20 mM TrisHCl pH 8, 100 mM KCl, 3 mM MgCl2) with 2% DMSO for 30 min at 37° C. to allow binding to come to equilibrium. The sample was then irradiated with long wave UV light (˜365 nm) for 30 min in a UV crosslinker (Fisher Scientific).
The RNA was then precipitated by adding 10 μL of 3 M sodium acetate pH 5 and 275 μL ethanol, cooling to −80° C. for 1 h, and then centrifuging at 20,500×g at 4° C. for 30 min. The RNA pellet was washed with 500 μL of 70% ethanol, air dried for 5 min, and then resuspended in 120 μL of water.
50 μL of RNA sample was injected onto Clarity 2.6 μm Oligo X-T column (50*2.1 mm, 60° C.), and the gradient and flowrate were as follows: 95% A/5% B to 75% A/25% B over 5 min, flowrate: 400 μL/min; 75% A/25% B to 30% A/70% B over 1 min, flowrate: 400 μL/min; 100% D over 1 min, flowrate: 500 μL/min; 95% A/5% B over 2 min, flowrate: 500 μL/min (A: 1% HFIPA (hexafluoroisopropyl alcohol), 0.1% DIEA (diisopropylethylamine), 1 μM EDTA (ethylenediamine tetraacetic acid) in H2O; B: 0.075% HFIPA, 0.0375% DIEA, 1 μM EDTA in 65/35 MeCN/H2O; D: 40/40/20% MeOH/MeCN/H2O); The LCMS instrument was a Thermo Finnigan LTQ, and ProMass deconvolution software coupled with Xcaliber were used for all data processing.

[4] = test system: Aptamer 21; test: Reverse transcriptase pausing (drop-off) gel assay of photo-crosslinking to Aptamer 21
Method: A solution of RNA at 2 to 5 μM in nuclease-free water was heated to 95° C. for 3 min and then cooled on ice for 2 min. This solution was diluted with ½ volume of 3×RNA folding buffer (60 mM TrisHCl pH 8, 300 mM KCl, 9 mM MgCl2) and incubated at 37° C. for 20 min. Folding was carried out immediately before use of the RNA in each experiment. In cases where a mixture of RNA molecules was used in vitro the RNAs were folded separately and then combined prior to the probing experiment.
as §1, with “RNA (1” for “RNA (1.33”, “with” for “with or without”, “probe (10” for “probe (20”, “total 25” for “total 100”, “with 2.5%” for “with 2%”
A 3.75 μL aliquot of 10 μM reverse transcription primer was added to the cross-linked RNA sample, which was then incubated for 5 min at 65° C. and then cooled on ice. The sample was then diluted to a final volume of 60 μL and final buffer concentration of 1× Protoscript-II buffer (New England Biolabs), 0.5 mM dNTPs, 10 mM DTT, 0.4 U/μL RNase Inhibitor (New England Biolabs), and 10 U/μL Protoscript-II (New England Biolabs). The reaction was incubated at 45° C. for 2 h, 65° C. for 20 min, and then 4° C.
The RNA was hydrolyzed by the addition of 4.8 μL of 2.5 M NaOH and heating at 95° C. for 5 min. The reaction was quenched by the addition of 0.9 μL of acetic acid. The cDNA was precipitated by the addition of 6.6 μL of 3 M sodium acetate pH 5 and 181 μL ethanol, cooling to −80° C. for 1 h, and then centrifuging at 20,500×g at 4° C. for 30 min. The cDNA pellet was washed twice with 500 μL of 70% ethanol and then air dried for 5 min.
The cDNA pellet was resuspended in 12 μL of 1×TBE-urea sample loading buffer (Bio-Rad) and heated to 95° C. for 5 min. The sample was then run on a pre-cast 8.6×6.7 cm TBE-urea 10% PAGE gel (Bio-Rad) at 120 V until the lower bromophenol blue dye reached the bottom of the gel. The gel was stained with 1×SYBR-gold (Invitrogen) in 1×TBE buffer at room temperature for 20 min covered from light. The gel fluorescence was imaged on an Azure c600 instrument.

Row | binding to negative control Aptamer 21-E [2] | cross-linking with Apt21 RNA (RT pausing) ([4]; 1 uM RNA, 10 uM probe (9 uM PreQ1 probe), UV ~360 nm) | Structure (SMILES) | RT pausing peaks after click-biotinylation and avidin bead enrichment [1] | photoadduct with Aptamer 21-E [2] | covalent modification of the RNA by LC-MS [3] | shortened sequences produced in PEARL-seq reverse transcriptase pausing gel assay ([4]; FIG. 52)
1 | – | – | COC(=O)C1=C(COCc2cn(CCOCCOCCNC(=O)c3cc(CN=[N+]=[N-])cc(N=[N+]=[N-])c3)nn2)NC(c2ccncc2)=NC1c1ccc(F)cc1Cl (stereo not drawn) [ARK-729] | RT pausing peaks specific to Aptamer 21 | – | – | –
2 | does not bind | specific and UV-dependent cross-linking | COC(=O)C1=C(COCc2cn(CCOCCOCCNC(=O)CCC3(C)N=N3)nn2)NC(c2ccncc2)=NC1c1ccc(F)cc1Cl (stereo not drawn) [ARK-547] | – | no photoadduct | 5% | shortened sequences of particular lengths
